Data from ChEMBL document CHEMBL2424640, “Dihydrothiazolopyridone derivatives as a novel family of positive allosteric modulators of the metabotropic glutamate 5 (mGlu5) receptor” (J Med Chem, 2013).

Experiments:
[1] = biological target: Metabotropic glutamate receptor 5 (Homo sapiens, UniProt P41594)
Description: Positive allosteric modulation of human mGluR5a transfected in HEK293 cells by calcium mobilization assay

[2] = biological target: Metabotropic glutamate receptor 2 (Homo sapiens, UniProt Q14416)
Description: Positive allosteric modulation of human mGlu2 receptor expressed in HEK293 cells by fluorescent Ca2+ assay

[3] = biological target: Metabotropic glutamate receptor 1 (Homo sapiens, UniProt Q13255)
Description: Positive allosteric modulation of human mGlu1 receptor expressed in HEK293 cells by fluorescent Ca2+ assay

[4] = biological target: Metabotropic glutamate receptor 8 (Homo sapiens, UniProt O00222)
Description: Positive allosteric modulation of human mGlu8 receptor expressed in HEK293 cells by fluorescent Ca2+ assay

[5] = biological target: Metabotropic glutamate receptor 6 (Rattus norvegicus, UniProt P35349)
Description: Positive allosteric modulation of rat mGlu6 receptor expressed in CHO cells by [35S]-GTPgammaS binding assay

[6] = biological target: Metabotropic glutamate receptor 7 (Homo sapiens, UniProt Q14831)
Description: Positive allosteric modulation of human mGlu7 receptor expressed in HEK293 cells by fluorescent Ca2+ assay

[7] = biological target: Metabotropic glutamate receptor 3 (Homo sapiens, UniProt Q14832)
Description: Positive allosteric modulation of human mGlu3 receptor expressed in HEK293 cells by fluorescent Ca2+ assay

[8] = biological target: Metabotropic glutamate receptor 4 (Homo sapiens, UniProt Q14833)
Description: Positive allosteric modulation of human mGlu4 receptor expressed in HEK293 cells by fluorescent Ca2+ assay

Metabotropic glutamate receptor 7, sequence (Q14831 whole entry): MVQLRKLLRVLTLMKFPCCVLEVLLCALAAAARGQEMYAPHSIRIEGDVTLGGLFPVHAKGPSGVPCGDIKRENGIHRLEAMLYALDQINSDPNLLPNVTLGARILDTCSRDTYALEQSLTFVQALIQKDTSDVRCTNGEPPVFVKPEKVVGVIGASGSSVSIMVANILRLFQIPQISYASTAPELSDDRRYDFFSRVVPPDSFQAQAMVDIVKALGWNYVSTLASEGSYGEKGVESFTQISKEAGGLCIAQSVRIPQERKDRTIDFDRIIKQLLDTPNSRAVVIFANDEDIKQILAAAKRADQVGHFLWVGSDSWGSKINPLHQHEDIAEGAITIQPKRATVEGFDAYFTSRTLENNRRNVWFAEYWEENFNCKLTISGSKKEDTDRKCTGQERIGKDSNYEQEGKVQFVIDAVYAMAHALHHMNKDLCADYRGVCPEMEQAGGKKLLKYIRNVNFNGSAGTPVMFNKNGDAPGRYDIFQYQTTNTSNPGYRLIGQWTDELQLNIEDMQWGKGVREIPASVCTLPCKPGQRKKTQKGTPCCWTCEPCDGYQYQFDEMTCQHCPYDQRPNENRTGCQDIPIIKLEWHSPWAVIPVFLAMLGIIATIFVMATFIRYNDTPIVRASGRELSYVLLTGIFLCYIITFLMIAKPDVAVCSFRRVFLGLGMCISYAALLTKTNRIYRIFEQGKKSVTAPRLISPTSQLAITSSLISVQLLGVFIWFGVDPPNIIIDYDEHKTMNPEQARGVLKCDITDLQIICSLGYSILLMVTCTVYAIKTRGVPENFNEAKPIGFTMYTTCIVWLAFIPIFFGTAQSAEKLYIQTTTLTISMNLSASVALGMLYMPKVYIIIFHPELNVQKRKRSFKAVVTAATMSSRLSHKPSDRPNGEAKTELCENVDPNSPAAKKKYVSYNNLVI
Metabotropic glutamate receptor 8, sequence (O00222 whole entry): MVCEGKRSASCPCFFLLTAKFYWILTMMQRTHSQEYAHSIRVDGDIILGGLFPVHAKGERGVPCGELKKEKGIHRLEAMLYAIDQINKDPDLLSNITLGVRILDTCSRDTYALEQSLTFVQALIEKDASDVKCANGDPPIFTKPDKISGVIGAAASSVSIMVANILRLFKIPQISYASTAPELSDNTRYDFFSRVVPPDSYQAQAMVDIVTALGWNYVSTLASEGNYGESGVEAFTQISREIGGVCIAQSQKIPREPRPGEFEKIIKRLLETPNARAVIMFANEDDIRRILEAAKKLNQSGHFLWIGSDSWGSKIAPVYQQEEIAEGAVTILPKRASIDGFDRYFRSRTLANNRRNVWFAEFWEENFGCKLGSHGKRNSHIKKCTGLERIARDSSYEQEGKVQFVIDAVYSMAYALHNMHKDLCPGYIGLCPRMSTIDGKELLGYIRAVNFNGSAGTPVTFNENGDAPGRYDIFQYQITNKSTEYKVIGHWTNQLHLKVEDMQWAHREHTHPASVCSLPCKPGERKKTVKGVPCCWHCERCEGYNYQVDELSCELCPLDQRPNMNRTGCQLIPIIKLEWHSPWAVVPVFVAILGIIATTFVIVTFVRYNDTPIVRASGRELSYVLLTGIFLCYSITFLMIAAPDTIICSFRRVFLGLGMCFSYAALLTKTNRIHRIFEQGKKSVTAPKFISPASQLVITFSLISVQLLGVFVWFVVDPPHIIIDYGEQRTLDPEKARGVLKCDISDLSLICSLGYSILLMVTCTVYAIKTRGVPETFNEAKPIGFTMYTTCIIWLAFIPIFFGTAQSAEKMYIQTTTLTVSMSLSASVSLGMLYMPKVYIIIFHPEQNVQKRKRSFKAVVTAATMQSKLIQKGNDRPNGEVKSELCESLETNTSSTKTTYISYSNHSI
Metabotropic glutamate receptor 2, sequence (Q14416 whole entry): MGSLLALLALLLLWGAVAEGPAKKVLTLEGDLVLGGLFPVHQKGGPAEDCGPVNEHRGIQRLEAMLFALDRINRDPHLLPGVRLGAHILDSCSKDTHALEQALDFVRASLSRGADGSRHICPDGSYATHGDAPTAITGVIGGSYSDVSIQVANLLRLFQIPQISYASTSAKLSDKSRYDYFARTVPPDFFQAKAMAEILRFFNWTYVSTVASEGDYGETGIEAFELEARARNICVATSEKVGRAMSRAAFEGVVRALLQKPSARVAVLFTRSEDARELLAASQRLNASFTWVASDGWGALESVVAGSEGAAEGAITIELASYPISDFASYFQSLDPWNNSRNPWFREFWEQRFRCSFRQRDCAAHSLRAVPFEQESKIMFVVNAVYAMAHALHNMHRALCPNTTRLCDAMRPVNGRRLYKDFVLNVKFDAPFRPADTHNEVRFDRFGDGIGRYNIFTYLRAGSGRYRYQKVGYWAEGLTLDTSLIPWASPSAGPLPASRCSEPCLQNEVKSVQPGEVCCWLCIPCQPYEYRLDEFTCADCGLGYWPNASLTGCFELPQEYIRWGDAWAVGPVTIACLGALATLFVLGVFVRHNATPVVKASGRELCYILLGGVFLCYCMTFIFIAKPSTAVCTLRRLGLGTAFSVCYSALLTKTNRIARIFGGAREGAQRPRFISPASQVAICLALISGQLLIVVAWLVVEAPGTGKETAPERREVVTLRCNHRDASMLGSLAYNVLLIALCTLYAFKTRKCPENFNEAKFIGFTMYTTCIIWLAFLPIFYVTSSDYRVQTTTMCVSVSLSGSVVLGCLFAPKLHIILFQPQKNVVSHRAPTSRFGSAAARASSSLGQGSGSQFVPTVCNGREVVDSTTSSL
Metabotropic glutamate receptor 1, sequence (Q13255 whole entry): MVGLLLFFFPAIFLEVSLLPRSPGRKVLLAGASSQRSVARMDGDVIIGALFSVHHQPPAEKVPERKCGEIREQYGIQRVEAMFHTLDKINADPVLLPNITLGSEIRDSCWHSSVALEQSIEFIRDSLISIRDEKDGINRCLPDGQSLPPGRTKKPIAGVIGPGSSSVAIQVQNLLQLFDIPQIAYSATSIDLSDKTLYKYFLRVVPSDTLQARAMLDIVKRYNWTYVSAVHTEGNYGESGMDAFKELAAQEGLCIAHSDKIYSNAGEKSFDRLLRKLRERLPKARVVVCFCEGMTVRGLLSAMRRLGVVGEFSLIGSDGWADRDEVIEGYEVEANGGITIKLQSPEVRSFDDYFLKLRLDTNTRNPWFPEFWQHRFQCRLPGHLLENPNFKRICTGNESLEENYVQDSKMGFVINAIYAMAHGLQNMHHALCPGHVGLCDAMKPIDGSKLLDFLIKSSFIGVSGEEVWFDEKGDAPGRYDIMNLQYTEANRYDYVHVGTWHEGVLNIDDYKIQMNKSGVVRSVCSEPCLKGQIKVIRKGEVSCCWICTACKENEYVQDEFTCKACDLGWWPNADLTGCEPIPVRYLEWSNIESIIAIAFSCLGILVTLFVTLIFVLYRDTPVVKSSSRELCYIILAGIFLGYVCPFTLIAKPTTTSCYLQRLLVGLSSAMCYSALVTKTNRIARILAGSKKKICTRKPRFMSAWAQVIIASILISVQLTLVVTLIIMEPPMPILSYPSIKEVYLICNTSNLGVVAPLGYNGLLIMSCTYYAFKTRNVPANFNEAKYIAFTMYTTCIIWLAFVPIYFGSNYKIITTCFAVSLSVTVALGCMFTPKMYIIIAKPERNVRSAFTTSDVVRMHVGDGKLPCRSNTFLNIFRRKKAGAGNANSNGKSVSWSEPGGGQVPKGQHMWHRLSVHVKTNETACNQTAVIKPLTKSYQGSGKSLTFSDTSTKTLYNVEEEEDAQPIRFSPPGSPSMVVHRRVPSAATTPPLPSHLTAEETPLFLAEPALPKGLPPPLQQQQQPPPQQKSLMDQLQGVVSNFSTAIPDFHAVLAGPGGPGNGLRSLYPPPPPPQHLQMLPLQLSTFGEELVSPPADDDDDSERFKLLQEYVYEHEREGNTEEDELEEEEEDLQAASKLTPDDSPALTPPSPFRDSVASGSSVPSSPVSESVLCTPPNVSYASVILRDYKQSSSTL
Metabotropic glutamate receptor 3, sequence (Q14832 whole entry): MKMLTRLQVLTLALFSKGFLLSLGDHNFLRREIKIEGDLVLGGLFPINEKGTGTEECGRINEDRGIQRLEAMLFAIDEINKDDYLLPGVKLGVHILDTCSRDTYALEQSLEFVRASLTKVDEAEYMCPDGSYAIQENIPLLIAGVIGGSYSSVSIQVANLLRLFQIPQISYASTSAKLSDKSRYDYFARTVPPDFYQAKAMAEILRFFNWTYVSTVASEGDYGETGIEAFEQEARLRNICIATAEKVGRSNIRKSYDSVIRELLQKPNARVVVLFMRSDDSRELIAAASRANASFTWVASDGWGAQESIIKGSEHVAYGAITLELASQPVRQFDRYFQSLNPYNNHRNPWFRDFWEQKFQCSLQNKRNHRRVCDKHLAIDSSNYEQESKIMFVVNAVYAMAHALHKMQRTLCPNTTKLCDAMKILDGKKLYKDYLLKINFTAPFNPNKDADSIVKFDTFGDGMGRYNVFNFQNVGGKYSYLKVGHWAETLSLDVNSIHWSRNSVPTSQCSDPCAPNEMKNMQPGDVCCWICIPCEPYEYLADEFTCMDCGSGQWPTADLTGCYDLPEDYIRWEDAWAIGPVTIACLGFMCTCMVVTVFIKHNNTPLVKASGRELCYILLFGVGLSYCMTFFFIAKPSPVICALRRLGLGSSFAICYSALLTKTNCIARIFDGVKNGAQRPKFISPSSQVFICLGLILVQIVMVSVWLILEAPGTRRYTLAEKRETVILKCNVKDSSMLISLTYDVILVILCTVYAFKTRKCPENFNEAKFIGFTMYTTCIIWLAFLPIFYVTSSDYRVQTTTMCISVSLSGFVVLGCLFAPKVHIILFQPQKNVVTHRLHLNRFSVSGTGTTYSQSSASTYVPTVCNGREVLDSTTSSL

SMILES | EC50 [1] [nM] | other results
O=C(O)c1ccccc1 [BENZOIC ACID] | > 10000 | –
O=C1c2sc(COc3ccccc3)nc2CCN1C1CC1 | 1460 | –
O=C(c1ccc(F)cc1)N1CCC[C@H](c2nc(-c3ccc(F)cc3)no2)C1 | 199 | –
O=C1CCc2cc(O)ccc2O1 | > 10000 | –
O=C1c2sc(COc3ccccc3)nc2CCN1c1ccc(F)cc1 | 96 | –
CN1CCc2nc(C#Cc3ccccc3)sc2C1=O | 193 | –
O=C1NCCc2nc(C#Cc3ccccc3)sc21 | 123 | –
COCCN1CCc2nc(C#Cc3ccccc3)sc2C1=O | 119 | –
O=C1c2sc(COc3ccccc3)nc2CCN1c1ncccc1F | 791 | –
O=C1c2sc(COc3ccccc3)nc2CCN1c1ccc(F)cc1F | 66 | –
CC(C)N1CCc2nc(COc3ccccc3)sc2C1=O | 1210 | –
O=C1c2sc(COc3ccccc3)nc2CCN1c1ccccn1 | 1020 | –
O=C1c2sc(COc3cccc(F)c3)nc2CCN1c1ccc(F)cc1 | 77 | –
O=C1c2sc(COc3ccccc3F)nc2CCN1c1ccc(F)cc1 | 553 | –
O=C1CCOc2cc(OCc3ccccc3)ccc21 | – | EC50 [2]: > 10000 nM; EC50 [3]: > 10000 nM; EC50 [4]: > 10000 nM; EC50 [5]: > 10000 nM; EC50 [6]: > 10000 nM; EC50 [7]: > 10000 nM
O=C1c2sc(COc3ccccc3)nc2CCN1CC1CC1 | 250 | –
O=C1c2sc(COc3ccccc3)nc2CCN1CC1CCOCC1 | 851 | –
COCCN1CCc2nc(COc3ccccc3)sc2C1=O | 2310 | –
O=C1CCCc2nc(C#Cc3ccccc3)sc21 | 33 | EC50 [2]: > 10000 nM; EC50 [3]: > 10000 nM; EC50 [4]: > 10000 nM; EC50 [5]: > 10000 nM; EC50 [6]: > 10000 nM; EC50 [8]: > 10000 nM; EC50 [7]: > 10000 nM
O=C1c2sc(OCc3ccccc3)nc2CCN1c1ccc(F)cc1 | 1130 | –
O=C1c2sc(COc3ccccc3)nc2CCN1c1ccc(F)cn1 | 621 | –
O=C1c2sc(COc3ccc(F)cc3)nc2CCN1c1ccc(F)cc1 | 739 | –
O=C1CCOc2cc(COc3ccccc3)ccc21 | – | EC50 [2]: > 10000 nM; EC50 [3]: > 10000 nM; EC50 [4]: > 10000 nM; EC50 [5]: > 10000 nM; EC50 [6]: > 10000 nM; EC50 [7]: > 10000 nM
CN1CCc2nc(OCc3ccccc3)sc2C1=O | 1750 | –
O=C1c2sc(COc3ccccc3)nc2CCN1c1cccnc1 | 1760 | –
